Reference: ChEMBL document CHEMBL1133379, “Bioisosteric modification of PETT-HIV-1 RT-inhibitors: synthesis and biological evaluation” (Bioorg Med Chem Lett, 2000)

Tests used:
[1] = system: Human immunodeficiency virus 1; assay: Antiviral activity against HIV-1 virus.; assay type: functional; settings: read-out: ED50 (the source's name)
[2] = target: Human immunodeficiency virus type 1 reverse transcriptase (Human immunodeficiency virus 1, UniProt Q72547); assay: Inhibition of wild-type HIV-1 Reverse transcriptase.

Compound: COc1ccccc1CCNC(=S)Nc1nccs1
- EC50 [1]: 400 nM

Compound: COc1cccc(C(=O)CC/N=C(\S)Nc2ccc(Br)cn2)c1
- EC50 [1]: 911 nM
- IC50 [2]: 80 nM

Compound: O=C(CCNC(=S)Nc1ccc(Br)cn1)c1ccccc1
- EC50 [1]: 36 nM
- IC50 [2]: < 27 nM

Compound: COc1ccccc1C(=O)CCNC(=S)Nc1ccc(Br)cn1
- EC50 [1]: 76 nM
- IC50 [2]: 3 nM

Compound: CCOc1ccc(F)c(CCNC(=O)Nc2ccc(Br)cn2)c1Cl
- EC50 [1]: 50 nM

Compound: O=S(=O)(NCCc1ccccc1)Nc1cncc(Cl)c1
- EC50 [1]: > 100000 nM
- IC50 [2]: > 10000 nM

Compound: N=C(Nc1ccc(Br)cn1)N[C@@H]1C[C@@H]1c1ccccc1
- EC50 [1]: 1200 nM
- IC50 [2]: 180 nM

Compound: O=C(CCNC(=S)Nc1ccc(Br)cn1)c1ccccc1Cl
- EC50 [1]: 100 nM
- IC50 [2]: 10 nM

Compound: Fc1cccc(F)c1CC/N=C(\S)Nc1ccc(Br)cn1
- EC50 [1]: 10 nM

Compound: O=C(CC/N=C(\S)Nc1ccc(Cl)cn1)c1c(F)cccc1F
- EC50 [1]: 28 nM
- IC50 [2]: 6 nM

Compound: S=C(Nc1ccc(Br)cn1)N[C@@H]1C[C@@H]1c1ccccc1
- EC50 [1]: 20 nM
- IC50 [2]: 8 nM

Compound: S=C(NCCc1ccccc1)Nc1ccc(Cl)cn1
- EC50 [1]: 30 nM
- IC50 [2]: 3 nM

Compound: O=C(NCCC(=O)c1ccccc1F)Nc1ccc(Br)cn1
- EC50 [1]: 201 nM
- IC50 [2]: 54 nM

Compound: N#CN/C(=N\c1ccc(Cl)cn1)NCCc1ccccc1
- EC50 [1]: > 100000 nM
- IC50 [2]: > 10000 nM

Compound: O=C(CC/N=C(\S)Nc1ccc(Br)cn1)c1ccc(F)cc1
- EC50 [1]: 300 nM
- IC50 [2]: 47 nM

Compound: COc1ccccc1CCN=C(NC#N)Nc1nccs1
- EC50 [1]: > 100000 nM
- IC50 [2]: > 10000 nM

Compound: O=C(CC/N=C(\S)Nc1ccc(Br)cn1)c1ccccc1F
- EC50 [1]: 9 nM
- IC50 [2]: 4 nM

Compound: O=C(CC/N=C(\S)Nc1ccc(Br)cn1)c1cc(F)ccc1F
- EC50 [1]: 67 nM
- IC50 [2]: < 25 nM

Compound: O=C(CCNC(=S)Nc1ccc(Br)cn1)c1c(F)cccc1F
- EC50 [1]: 50 nM
- IC50 [2]: 3 nM

Compound: CCOc1ccc(F)c(CC/N=C(\N)Nc2ccc(Br)cn2)c1Cl
- EC50 [1]: 1000 nM
- IC50 [2]: 400 nM

Compound: CCOc1ccc(F)c(CCNC(=S)Nc2ccc(Br)cn2)c1Cl [THIOUREA, N-(5-BROMO-2-PYRIDINYL)-N'-(2-(2-CHLORO-3-ETHOXY-6-FLUOROPHENYL)ETHYL)-]
- EC50 [1]: 7 nM
